Several values for one entry are separate records, joined by “and”; a condition that tells them apart may be missing. Equal values may be shown once.
Columns and labels:
[1] = system: mild to severe plaque psoriasis; assay: Treat-to-target pooled analysis of the PSOARING trials; assay type: in vivo, human
Text: In addition to a % BSA of ≤1.0% and PASI75, pooled analyses explored more aggressive targets, including the proportion of patients with % BSA of ≤0.5%, or an absolute PASI score of ≤1, ≤2 or ≤3. […] Safety analyses are based on all patients who received tapinarof in the PSOARING trials.

[2] = Maximal use study with serial PK sampling: plasma concentrations; assay type: in vivo, human; details: between Days 1 and 29
Text: (FIG. 2). This decline is further supported by serial PK data collected from previous clinical studies over 28 days of dosing and over 21 days of dosing.

## CC(C)c1c(O)cc(/C=C/c2ccccc2)cc1O [Tapinarof, 3,5-Dihydroxy-4-isopropyl-trans-stilbene]
[1]; 915 patients, baseline PGA≥2
  KM estimated median time to target % BSA≤0.5%: 199 days
  mean time to target PASI≤3: 58 days
  median time to target % BSA≤1.0%: 120 days
  median time to target PASI≤1: 185 days
  median time to target PASI≤2: 87 days
  patients who achieved % BSA≤0.5%: 49.7%
  patients who achieved % BSA≤1.0%: 61.3% and 61%
  patients who achieved PASI≤1: 50.3%
  patients who achieved PASI≤2: 66.9% and 67%
  patients who achieved PASI≤3: 75.0%
[1]; within ˜3 months
  patients who achieved ≤1% BSA affected: 40%
[2]
  decline in plasma concentrations: 10 fold

Source: patent US20220395472A1 (Dermavant Sciences GmbH, priority 2021, published 2022)
